We go through 9 molecules from BindingDB's records for patent US20250214932 (Praxis Precision Medicines, 2025).

Bounds are passed on as bounds.

Voltage-dependent T-type calcium channel subunit alpha-1G, sequence (O43497 whole entry): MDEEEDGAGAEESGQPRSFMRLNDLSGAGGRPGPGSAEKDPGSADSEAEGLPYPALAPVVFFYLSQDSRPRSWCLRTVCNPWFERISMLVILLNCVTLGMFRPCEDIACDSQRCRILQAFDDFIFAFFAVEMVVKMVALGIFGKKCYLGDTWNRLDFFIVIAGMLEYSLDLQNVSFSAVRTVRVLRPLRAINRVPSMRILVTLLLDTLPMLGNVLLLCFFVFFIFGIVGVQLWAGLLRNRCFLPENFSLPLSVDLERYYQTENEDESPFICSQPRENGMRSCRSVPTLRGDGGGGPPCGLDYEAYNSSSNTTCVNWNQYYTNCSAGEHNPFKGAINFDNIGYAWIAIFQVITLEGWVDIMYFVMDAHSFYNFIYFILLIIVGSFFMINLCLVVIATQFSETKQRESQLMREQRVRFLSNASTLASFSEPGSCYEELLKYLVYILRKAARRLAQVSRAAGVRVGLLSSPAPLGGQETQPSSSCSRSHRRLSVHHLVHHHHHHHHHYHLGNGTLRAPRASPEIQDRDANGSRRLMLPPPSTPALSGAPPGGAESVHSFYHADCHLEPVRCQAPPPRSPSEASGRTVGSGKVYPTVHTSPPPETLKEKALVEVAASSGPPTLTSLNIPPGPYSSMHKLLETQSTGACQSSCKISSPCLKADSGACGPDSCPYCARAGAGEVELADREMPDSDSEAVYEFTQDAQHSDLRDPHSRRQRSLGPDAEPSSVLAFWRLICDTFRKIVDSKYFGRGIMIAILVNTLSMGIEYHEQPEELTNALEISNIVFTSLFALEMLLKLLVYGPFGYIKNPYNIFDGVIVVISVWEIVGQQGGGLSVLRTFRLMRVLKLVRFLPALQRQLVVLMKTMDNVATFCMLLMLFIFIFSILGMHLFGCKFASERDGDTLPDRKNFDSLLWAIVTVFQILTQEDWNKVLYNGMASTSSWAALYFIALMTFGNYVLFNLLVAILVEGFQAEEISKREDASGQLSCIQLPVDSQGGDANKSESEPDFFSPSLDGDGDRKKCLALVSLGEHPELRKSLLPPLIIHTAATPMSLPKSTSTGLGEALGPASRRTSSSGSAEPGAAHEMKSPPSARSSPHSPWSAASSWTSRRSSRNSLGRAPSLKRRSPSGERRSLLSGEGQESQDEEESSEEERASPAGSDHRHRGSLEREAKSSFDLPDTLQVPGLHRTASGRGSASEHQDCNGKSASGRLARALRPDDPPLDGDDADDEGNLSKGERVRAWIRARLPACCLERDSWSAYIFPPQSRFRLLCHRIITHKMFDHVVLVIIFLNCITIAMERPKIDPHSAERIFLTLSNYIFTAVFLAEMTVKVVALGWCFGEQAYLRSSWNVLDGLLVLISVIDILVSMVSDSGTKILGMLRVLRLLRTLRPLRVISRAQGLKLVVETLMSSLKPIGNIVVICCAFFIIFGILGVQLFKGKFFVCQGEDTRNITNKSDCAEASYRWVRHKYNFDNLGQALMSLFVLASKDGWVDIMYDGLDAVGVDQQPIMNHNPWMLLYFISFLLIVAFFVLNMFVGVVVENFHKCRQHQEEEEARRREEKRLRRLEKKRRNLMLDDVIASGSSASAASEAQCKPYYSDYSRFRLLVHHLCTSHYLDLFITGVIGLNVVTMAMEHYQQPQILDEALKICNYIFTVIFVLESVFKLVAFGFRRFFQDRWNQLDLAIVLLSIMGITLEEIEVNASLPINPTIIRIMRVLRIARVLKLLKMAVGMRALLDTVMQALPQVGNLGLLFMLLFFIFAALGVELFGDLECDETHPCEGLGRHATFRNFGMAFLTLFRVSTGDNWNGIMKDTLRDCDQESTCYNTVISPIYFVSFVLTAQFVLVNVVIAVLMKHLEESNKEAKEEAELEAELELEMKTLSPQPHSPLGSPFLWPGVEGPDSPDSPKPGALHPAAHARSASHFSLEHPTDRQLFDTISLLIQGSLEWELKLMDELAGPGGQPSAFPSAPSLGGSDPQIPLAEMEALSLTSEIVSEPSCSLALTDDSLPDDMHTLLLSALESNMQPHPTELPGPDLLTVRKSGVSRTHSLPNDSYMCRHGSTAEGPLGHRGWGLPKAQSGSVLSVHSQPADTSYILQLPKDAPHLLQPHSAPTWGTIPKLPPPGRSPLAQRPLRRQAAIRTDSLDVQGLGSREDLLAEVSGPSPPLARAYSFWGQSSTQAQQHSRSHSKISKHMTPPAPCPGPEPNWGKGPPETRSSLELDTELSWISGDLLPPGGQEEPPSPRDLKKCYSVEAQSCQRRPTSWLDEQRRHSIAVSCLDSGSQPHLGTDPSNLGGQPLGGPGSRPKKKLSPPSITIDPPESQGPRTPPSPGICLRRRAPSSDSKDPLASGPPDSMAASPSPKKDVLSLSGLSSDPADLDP

The test addresses Voltage-dependent T-type calcium channel subunit alpha-1G (Homo sapiens, UniProt O43497). Kind of test: In Vitro Cav3.1 Single Point and IC50 (VDB) Data. How it is done: The compound plate was created at 2× concentrated in the extracellular solution. The compound was diluted to 1:2 when added to the recording well. The amount of DMSO in the extracellular solution was held constant at the level used for the highest tested concentration. For the voltage clamp experiments on Cav3.1, data were sampled at 10 KHz. After establishment of the seal and the passage in the whole cell configuration, the cells were held at −120 mV. Cav3.1 current was evoked using a 100 ms step to −20 mV (to measure resting state block), followed by a 1600 ms step to −65 mV and a second 100 ms step to −20 mV (to measure voltage dependent block). The voltage protocol was applied every 15 seconds in the absence and in the presence of the compounds under investigation. […] Current amplitude (pA) was measured in the peak 1 and 2. The average of last 3 sweeps of each liquid period (vehicle, compound under investigation, full block) was calculated. Nickel-sensitive current was used to calculate the % of inhibition in the presence of the compound under investigation.
One may read the IC50 as the midpoint of a concentration-inhibition curve. Regarding `COc1cc(F)cc(NC(=O)C2CCC3(CC2)CN(CC(=O)NC(C)(C)C)C3)c1` [US20250214932, Example 46], the IC50 was 218 nM.

In the case of `Cc1cc(F)cc(NC(=O)C2CCC3(CC2)CN(CC(=O)NC(C)(C)C)C3)c1` [US20250214932, Example 48], the concentration for half-maximal inhibition (IC50) came to 196 nM.

Regarding `O=C(Nc1cc(F)cc(C(F)F)c1)C1CCC2(CC1)CN(CCNC(=O)C1(C(F)(F)F)CCC1)C2` [US20250214932, Example 52], the IC50 amounted to 261 nM.

For `O=C(Nc1cc(F)cc(Cl)c1)C1CCC2(CC1)CN(CC(O)C1CCCCC1)C2` (centres undefined) [US20250214932, Example 68], the concentration for half-maximal inhibition (IC50) was found to be 170 nM.

As for `O=C(CN1CC2(CCC(C(=O)Nc3cc(F)cc(C(F)F)c3)CC2)C1)NC1(C(F)(F)F)CC1` [US20250214932, Example 79], the IC50 is under 78.2 nM.

`O=C(CN1CC2(CCC(C(=O)Nc3cc(F)cc(C(F)F)c3)CC2)C1)NC1(C(F)(F)F)CCC1` [US20250214932, Example 85]: the IC50 turned out to be 163 nM.

`O=C(Nc1cc(F)cc(C(F)F)c1)C1CCC2(CC1)CN(CC(F)(F)C1CCCC1)C2` [US20250214932, Example 100]: the IC50 stood at 407 nM.

On to `COc1cc(Cl)cc(NC(=O)C2CCC3(CC2)CN(CC2(C#N)CC2)C3)c1` [US20250214932, Example 129], for which the IC50 stood at 1360 nM.

With `O=C(NC12CC3CC(CC(C3)C1)C2)C1CCC2(CC1)CN(CC1(O)CCC(F)(F)CC1)C2` [US20250214932, Example 153], the IC50 was determined as 188 nM.
